The values below come from patent EP0135714B1, “Sustained release compositions for biologically active materials” (MELAMINE CHEMICALS, INC., priority 1983, dated 1985).

The conditions of data set [1]: pH 7, cited from earlier work.
For another data set, the system named is weeds. Put plainly: Pot test with Douglas-fir seedlings: weed growth on the soil surface. Format: in vivo. The text has this:
(§1) The following granular herbicide formulations were used: • (a) 2,4-D 5%, melamine 71%, urea 24% • (b) 2,4-D 4.7%, melamine 88.1%, resin solids 7.2% • (c) 2,4-D/KL (a controlled release formulation of 2,4-D with kraft lignin 10%, melamine 72%, urea 18% • (d) Velpar® herbicide 5.35%, melamine 90.35%, resin solids 4.3% (V/MI) • (e) b and d, applied together • (f) control, no treatment • (g) technical 2,4-D treatment
(§2) Douglas-fir seedlings (2.0) were planted in 10" (25 cm) diameter pots. Each of the above five granule treatments was applied to three potted firs. Two control sets of potted seedlings had respectively no treatment, and an application of commercial 2,4-D, for comparison. In the application of the commercial 2,4-D, the fine powdered material was applied evenly to the soil surface, using the same 2,4-D material employed in making the granular formulations.
(§3) The 2,4-D was applied in all sets at the equivalent rate of 22.7 kg ai/ha and the Velpar® herbicide at 23.8 kg ai/ha (ai = active ingredient).
(§4) These sets were monitored for seedling height growth, growth quality of the seedling, and weed growth surrounding the seedling, represented as a % of soil surface.
There were no visible weeds present on the soil at the time of treatment. However, volunteer weed seeds were always present in the atmosphere and daily settled on the soil surface. […]

A short description of data set [2]: Rate of release from granules in dialysis tubing into a water bath. Format: physicochemical. Conditions: after 8-9 days. The procedure:
Each of these formulations was made up into granules that were screened to fall within the size range of 0.84 to 1.41 mm.
In order to make measurements on the amount of herbicide released from each set of granules, a sample was taken of each. The sample was placed in dialysis tubing. The tubing was submerged in a covered container of distilled water containing 10 liters of water at 22°C. The solution was agitated and 10 ml. aliquots were removed at appropriate times.
The aliquots were subjected to analyses by an ultra-violet spectrophotometer at 203, 247 and 284 nm. respectively, for determination of the contents of melamine and herbicide.

The next data set relates to Douglas-fir seedlings. As to the kind of experiment: Pot test with Douglas-fir seedlings: seedling height growth. Format: in vivo. Conditions: Fig. 4: 24 weeks after the treatment date.
Excerpt: as §1, §2, §3, §4
In the drawings, Figs. 1 and 3 compare the weed growth observed following soil treatment, using the pot-planted Douglas fir seedlings. […]

A further data set concerns Alfalfa seeds. As to the kind of experiment: Pot test: germination of alfalfa seeds on treated soil. Format: in vivo. The text has this: The effectiveness of these granular materials in preventing the germination of alfalfa seeds was used as an assay of the continued performance of the 2,4-D admixed with the melamine compositions. As long as significant quantities of 2,4-D are present, alfalfa seed will not germinate completely. When the alfalfa seeds receiving the treatment germinate comparably to seeds which received no treatment, the period of effectiveness of the 2,4-D has ended.
Alfalfa seeds (1 gram) were planted on the surface of sieved unsterile compost soil in 2½ in. x 2½ in. (6.3 cm x 6.3 cm) plastic pots. Each test pot stood in a plastic saucer in order to avoid contamination between pots. After introduction of the seeds, the pots were well watered from the top and covered with another plastic dish until germination was established. This avoided unnecessary drying out of the soil and maintained an intimate moist atmosphere for seed germination. All test pots were kept in a controlled temperature room at 70°F for the duration of the trial. After germination was established the covers were removed to avoid any restriction of seedling growth. Seeds and plants were monitored daily, watered evenly as necessary, and growth changes recorded.
A series of four pot treatments was set up as follows: • (a) control pots to which no chemical was applied; • (b) 2,4-D alone (applied at a rate equivalent to 22.7 kg of 2,4-D/ ha ); • (c) 2,4-D/melamine granules of Example 1 (applied at a rate equivalent to 22.7 kg of 2,4-D/ha ); and • (d) melamine granules (not containing 2,4-D) in an amount equal to that used in treatment (c).
The melamine/binder ratio was essentially the same in the granules used in treatments (c) and (d), the difference being in the presence or absence of 2,4-D. The granules were used by distributing them over the soil surfaces in the pots.
For each treatment, replicates of three pots were set up in four groups (A), (B), (C) and (D) so that alfalfa seeds could be planted on undisturbed soil for each of the following three weeks. All pots in each series were treated equally from the outset with respect to applied material, watering and light. The experiment was started when the treatments were applied to all of the pots by sprinkling the applied material on the surface of the soil, and pots (A) were planted. One week later, alfalfa seeds were planted in pots (B). Another week later, pots (C) were planted with alfalfa seeds and finally three weeks after application of the chemicals, pots (D) were planted with alfalfa seeds.
The pots in the four groups of pots A, B, C and D thus were treated at the same time, some pots receiving treatment (a): no chemical applied, to provide a control; some treatment (b): 2,4-D alone applied; and so on. […]

The mark [3] stands for this setting: Table II (Example 3), soil treatment applied at 0 days, 22.7 kg of 2,4-D/ha.

Where two headings read alike, the source gives them in different places.

On to `Nc1nc(N)nc(N)n1` [Melamine], for which the “Solubility (g/100g)” value in data set [1] (water at 20°C) was 0.50 g/100g.
As for `O=c1[nH]c(=O)[nH]c(=O)[nH]1` [Cyanuric Acid], in data set [1], the “Solubility (g/100g)” value is 0.27 g/100g.
As for `N#CNC(=N)N` [Dicyandiamide], the “Solubility (g/100g)” value in data set [1] was 2.26 (at 13°C) g/100g.
For the molecule `Nc1nc(N)nc(N)n1.O=[N+]([O-])O` [Melamine Nitrate], the “Solubility (g/100g)” value in data set [1] is 0.85 g/100g.
In the case of `O=C(O)COc1ccc(Cl)cc1Cl` [2,4-D, 2,4-dichlorophenoxyacetic acid], the “weed control (in words)” value in the data set with weeds (2,4-D 22.7 kg ai/ha, Velpar herbicide 23.8 kg ai/ha) is reported as “initially gave good weed control”. The “weed population occupied % of the soil surface” value in the data set with weeds (by fourteen weeks, 22.7 kg ai/ha) is recorded as approximately 90%. In addition, the “herbicide entered the bath” value in data set [2] amounted to 100%. Also, the mean height growth in the data set on Douglas-fir seedlings is on record as 28 cm. Also, the “height growth greater than the non-treated control” value in the data set on Douglas-fir seedlings (control 20 cm) worked out at 40%. The “mortality or aborted germination” value with Alfalfa seeds (Example 3, (A) pots, planted at 0 days) is 100%. In addition, in the data set with Alfalfa seeds (setting [3]), the “Extent of Germination (B) Pots Planted; 7 Days Later” value was 80% and the “Extent of Germination (C) Pots Planted; 14 Days Later” value was found to be 90%. The “Extent of Germination (D) Pots Planted; 21 Days Later” value with Alfalfa seeds (Table II (Example 3), soil treatment applied at 0 days, 22.7 kg of 2,4-D/ha, listed as 2,4-D alone) is listed as “germinating as well as the controls”.
Turning to `Nc1nc(O)nc(O)n1` [Ammelide], the “Solubility (g/100g)” value in data set [1] (water at 20°C) was “less than 0.008 g/100g”.
For `Nc1nc(N)nc(O)n1` [Ammeline], the “Solubility (g/100g)” value in data set [1] (water at 20°C) is 0.008 g/100g.
In the case of Potassium Acid Sulfate, the “Solubility (g/100g)” value in data set [1] is 51.4 g/100g.
On to `NC(N)=O` [Urea], for which the “Solubility (g/100g)” value in data set [1] (water, at 25°C) is 119.3 (at 25°C) g/100g.
In the case of `Nc1nc(N)nc(-c2ccccc2)n1` [Benzoguanamine], the “Solubility (g/100g)” value in data set [1] (water, 22°C) is 0.06 (22°C) g/100g.
